IC50 data for 1 compound are collected here from US10059723B2 (BIOMARIN PHARMACEUTICAL INC., priority 2011, dated 2018).

The test has as its target T1, HDAC1 (Homo sapiens, UniProt Q13547).
T1 construct: purchased BPS Bioscience 50051
As to the kind of experiment: HDAC activity inhibition assay, HDAC1. It is filed as biochemical. The following applies: 2 hours pre-incubation, Fluor-de-Lys substrate 10 μM. The protocol:
The HDAC activity inhibition assay was performed as follows to determine the ability of a test compound to inhibit HDAC enzymatic activity. […] Following pre-incubation, Fluor-de-Lys™ substrate (Enzo Life Sciences, Plymouth Meeting, Pa., BML-KI104-0050) was added to a final concentration of 10 μM and plates were further incubated for 30 minutes at room temperature. […] IC50 values were calculated by using a sigmoidal dose-response (variable slope) equation in GraphPad Prism® 5 for Windows (GraphPad Software, La Jolla, Calif.).

T1 sequence (Q13547 whole entry): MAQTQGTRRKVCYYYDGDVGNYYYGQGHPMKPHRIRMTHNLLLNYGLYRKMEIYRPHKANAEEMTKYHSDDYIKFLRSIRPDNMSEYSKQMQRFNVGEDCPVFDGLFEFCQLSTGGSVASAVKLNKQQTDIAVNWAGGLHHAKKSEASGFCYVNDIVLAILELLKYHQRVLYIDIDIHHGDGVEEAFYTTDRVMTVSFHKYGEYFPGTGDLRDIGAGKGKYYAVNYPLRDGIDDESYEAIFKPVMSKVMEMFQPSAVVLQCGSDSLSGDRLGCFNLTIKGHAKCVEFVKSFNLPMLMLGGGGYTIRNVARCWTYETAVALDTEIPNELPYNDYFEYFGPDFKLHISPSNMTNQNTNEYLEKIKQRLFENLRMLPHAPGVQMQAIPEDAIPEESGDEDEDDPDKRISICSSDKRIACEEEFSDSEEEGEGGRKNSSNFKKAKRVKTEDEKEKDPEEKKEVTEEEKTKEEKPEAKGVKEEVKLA

The IC50 is the concentration that gives 50% inhibition. `Cn1cc(/C=C/C(=O)Nc2ccc(F)cc2N)cn1` [C2] displayed a half-maximal inhibitory concentration (IC50) greater than 20 µM.
